Assay results taken from BindingDB's records for doi:10.1016/j.ejmech.2017.11.032 (International Institute of Molecular and Cell Biology, 2018).

Legend:
[1] = Inhibition of bacterial C-terminal His6-tagged ErmC' (unknown origin) expressed in Escherichia coli BL21(DE3) assessed as decrease in rRNA methylation using [methyl-3H]AdoMet measured after 1 hr
[2] = Competitive inhibition of bacterial C-terminal His6-tagged ErmC' expressed in Escherichia coli BL21(DE3) in presence of [methyl-3H]SAM
[3] = Inhibition of bacterial C-terminal His6-tagged ErmC' expressed in Escherichia coli BL21(DE3) assessed as decrease of protein binding to [gamma-33P]ATP-labeled 32-nt oligonucleotide after 30 mins by filter binding assay
[4] = Non-competitive inhibition of bacterial C-terminal His6-tagged ErmC' (unknown origin) expressed in Escherichia coli BL21(DE3) in presence of [methyl-3H]SAM
[5] = Inhibition of bacterial C-terminal His6-tagged ErmC' expressed in Escherichia coli ER2566 assessed as decrease in rRNA methylation using [methyl-3H]AdoMet measured after 1 hr
[6] = Non-competitive inhibition of bacterial C-terminal His6-tagged ErmC' (unknown origin) expressed in Escherichia coli BL21(DE3) in presence of [methyl-3H]SAM; remark: listed apart in the source
[7] = Inhibition of bacterial ErmC' assessed as decrease in rRNA methylation preincubated for 15 mins followed by S-adenosyl-L-[methyl3H]methionine addition measured after 2 hrs by scintillation counting method

Structure (SMILES) | IC50 [1] [µM] | IC50 [6] [µM] | also measured
CC(=O)Nc1nc(C)c(-c2csc(Nc3cccc(O)c3)n2)s1 | 299 |  | Ki [2]: 354 µM
O=C(c1csc(Nc2ncccn2)n1)N1CCN(c2ccc(C(F)(F)F)cn2)CC1 | 110 |  | Kd [3]: 0.04 µM; Ki [2]: 111 µM
O=C(c1c[nH]c(=O)[nH]1)N1CCN(c2ccc(C(F)(F)F)cn2)CC1 | 100 |  | Ki [4]: 148 µM
Cc1cccc(Nc2nc(C(=O)N3CCN(c4ccc(C(F)(F)F)cn4)CC3)cs2)n1 | 116 |  | Kd [3]: 1.04 µM
COC(=O)c1sc2ccccc2c1OS(=O)(=O)c1ccc(Cl)cc1 |  |  | IC50 [5]: 250 µM
Cc1ccc(Sc2cc(C)c(C#N)c(Sc3ccc(C)cc3)n2)cc1 |  |  | IC50 [5]: 180 µM
O=C1c2ccccc2C(=O)N1CN(CCCn1ccnc1)CN1C(=O)c2ccccc2C1=O |  |  | IC50 [5]: 300 µM
CC(=O)c1c[nH]c(C(=O)N2CCN(c3ccc(C(F)(F)F)cn3)CC2)c1 |  | > 500 | 
O=C(c1n[nH]c(=O)[nH]1)N1CCN(c2ccc(C(F)(F)F)cn2)CC1 |  | > 500 | 
O=C(c1cn(-c2ccccc2)nn1)N1CCN(c2ccc(C(F)(F)F)cn2)CC1 |  | 500 | 
O=C(c1cnn[nH]1)N1CCN(c2ccc(C(F)(F)F)cn2)CC1 |  | > 500 | 
O=C(c1cc(C2CC2)n[nH]1)N1CCN(c2ccc(C(F)(F)F)cn2)CC1 |  | > 500 | 
O=C(Nc1cccc(NCc2ccncc2)c1)c1ccccc1Cl |  | > 500 | 
O=C(Nc1ccn(CCc2ccncc2)n1)Nc1ccc(F)cc1F |  | 500 | 
O=C(Nc1ccncc1)c1ccn(COc2ccc(F)c(Cl)c2)n1 |  | > 500 | 
Cc1occc1C(=O)Nc1nc(CC(=O)Nc2ccccc2)cs1 |  | 250 | 
O=C(Cc1cccc(F)c1)Nc1cccc(-c2ccn[nH]2)c1 |  | 500 | 
O=C(Cc1cn2ccsc2n1)Nc1cccc(N2CCCC2=O)c1 |  | > 500 | 
O=C(Nc1cccc(NC(=O)c2cccc(F)c2)c1)c1ccncc1 |  | 250 | 

Structure (SMILES) | IC50 [1] [µM] | IC50 [6] [µM] | also measured
CN(C)c1ccc(CNC(=O)c2ccc(-n3cncn3)cc2)cc1 |  | > 500 | 
COc1ccc(C(=O)CSc2nc(O)cc(=O)[nH]2)cc1 |  | > 500 | 
O=C(CSc1nnc2c(n1)[nH]c1ccccc12)Nc1ccccn1 |  | > 250 | 
Nn1c(SCc2nc3ccccc3[nH]2)nnc1-c1ccncc1 |  | 500 | 
O=C(NCc1cccc(Cn2ccnc2)c1)c1cc2ccccc2o1 | 500 |  | 
Clc1ccccc1Cn1nnc2c(N/N=C/c3cccnc3)ncnc21 |  |  | IC50 [5]: 250 µM
Cn1cnnc1-c1cccc(NC(=O)Cc2cccc(F)c2)c1 | 500 |  | 
O=C(NCCOc1ccc2c(c1)OCO2)c1ccc2ccccc2n1 | 500 |  | 
CCCc1cc(C(=O)Nc2cccc(OCc3ccncc3)c2)[nH]n1 | 250 |  | 
Nc1nc(N)nc(CSc2nnc(NCc3ccccc3)s2)n1 | > 500 |  | 
Cc1nccc(C(=O)Nc2cc(NC(=O)c3ccccc3)ccc2C)n1 |  |  | IC50 [7]: 18 µM
O=C(Nc1nccs1)c1cc(-c2ccccn2)nc2ccccc12 | > 250 |  | 
O=C(NC1CCN(c2nc3ccccc3s2)CC1)c1ccncc1 | > 500 |  | 
O=C(c1cc(Cl)c[nH]1)N1CCN(c2ncc(C(F)(F)F)cc2Cl)CC1 | > 500 |  | 
FC(F)(F)c1ccc(N2CCN(Cc3c[nH]c(-c4ccccc4)n3)CC2)nc1 | > 500 |  | 
O=C(NCCSc1ccccc1)c1ccc(-n2cncn2)cc1 | 250 |  | 
FC(F)(F)c1ccc(N2CCN(Cc3cn4ccccc4n3)CC2)nc1 | > 500 |  | 
O=C(CSc1nc2cccnc2[nH]1)Nc1nccs1 | > 500 |  | 
CC(=O)Nc1ccc(S(=O)(=O)NCCc2ccncc2)cc1 | 500 |  | 
